Measured values published in ChEMBL document CHEMBL1201862, “PubChem BioAssay data set” (2004).
Activity calls are given as the source filed them.

What was measured:
[1] = biological target: T1, Delta-type opioid receptor (Homo sapiens, UniProt P41143); experiment: HTS Image-Based Screen for Antagonists of the DOR Receptor. [Related pubchem assays (depositor defined):AID1777, AID1785, AID1786, AID2133]; format: functional
[2] = biological target: T2, Mu-type opioid receptor (Homo sapiens, UniProt P35372); experiment: HTS Image-Based Screen for Agonists of the MOR Receptor. [Related pubchem assays (depositor defined):AID1777, AID1785, AID1786, AID2133]; format: functional
T2 sequence (P35372 whole entry): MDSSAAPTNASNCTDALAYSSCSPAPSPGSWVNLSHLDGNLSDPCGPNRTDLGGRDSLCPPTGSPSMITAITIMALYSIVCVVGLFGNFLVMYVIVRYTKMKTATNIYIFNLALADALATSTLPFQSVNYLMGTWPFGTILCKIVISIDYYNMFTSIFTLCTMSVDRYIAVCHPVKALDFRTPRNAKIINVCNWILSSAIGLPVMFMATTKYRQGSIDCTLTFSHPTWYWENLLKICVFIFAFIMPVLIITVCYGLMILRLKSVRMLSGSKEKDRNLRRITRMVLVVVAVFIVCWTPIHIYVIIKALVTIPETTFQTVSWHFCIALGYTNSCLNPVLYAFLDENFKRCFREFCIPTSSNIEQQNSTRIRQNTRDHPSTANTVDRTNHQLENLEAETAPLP

[3] = biological target: T1, Delta-type opioid receptor; experiment: HTS Image-Based Screen for Agonists of the DOR Receptor. [Related pubchem assays (depositor defined):AID1777, AID1786, AID2133]; format: functional
[4] = biological target: T3, Kappa-type opioid receptor (Homo sapiens, UniProt P41145); format: functional
T3 sequence (P41145 whole entry): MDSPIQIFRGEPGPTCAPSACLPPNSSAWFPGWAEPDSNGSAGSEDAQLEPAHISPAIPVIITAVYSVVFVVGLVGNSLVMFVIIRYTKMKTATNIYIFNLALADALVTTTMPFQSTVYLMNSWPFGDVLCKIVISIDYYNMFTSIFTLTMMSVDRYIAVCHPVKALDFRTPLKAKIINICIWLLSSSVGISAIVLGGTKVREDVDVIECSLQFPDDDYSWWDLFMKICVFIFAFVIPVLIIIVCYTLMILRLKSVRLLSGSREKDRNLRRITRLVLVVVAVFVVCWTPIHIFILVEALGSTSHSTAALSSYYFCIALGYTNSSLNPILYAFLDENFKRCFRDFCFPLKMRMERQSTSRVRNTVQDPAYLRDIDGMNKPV

[5] = biological target: Beta-galactosidase (Escherichia coli, UniProt Q8VNN2); format: functional
Sequence of Beta-galactosidase (Q8VNN2 whole entry): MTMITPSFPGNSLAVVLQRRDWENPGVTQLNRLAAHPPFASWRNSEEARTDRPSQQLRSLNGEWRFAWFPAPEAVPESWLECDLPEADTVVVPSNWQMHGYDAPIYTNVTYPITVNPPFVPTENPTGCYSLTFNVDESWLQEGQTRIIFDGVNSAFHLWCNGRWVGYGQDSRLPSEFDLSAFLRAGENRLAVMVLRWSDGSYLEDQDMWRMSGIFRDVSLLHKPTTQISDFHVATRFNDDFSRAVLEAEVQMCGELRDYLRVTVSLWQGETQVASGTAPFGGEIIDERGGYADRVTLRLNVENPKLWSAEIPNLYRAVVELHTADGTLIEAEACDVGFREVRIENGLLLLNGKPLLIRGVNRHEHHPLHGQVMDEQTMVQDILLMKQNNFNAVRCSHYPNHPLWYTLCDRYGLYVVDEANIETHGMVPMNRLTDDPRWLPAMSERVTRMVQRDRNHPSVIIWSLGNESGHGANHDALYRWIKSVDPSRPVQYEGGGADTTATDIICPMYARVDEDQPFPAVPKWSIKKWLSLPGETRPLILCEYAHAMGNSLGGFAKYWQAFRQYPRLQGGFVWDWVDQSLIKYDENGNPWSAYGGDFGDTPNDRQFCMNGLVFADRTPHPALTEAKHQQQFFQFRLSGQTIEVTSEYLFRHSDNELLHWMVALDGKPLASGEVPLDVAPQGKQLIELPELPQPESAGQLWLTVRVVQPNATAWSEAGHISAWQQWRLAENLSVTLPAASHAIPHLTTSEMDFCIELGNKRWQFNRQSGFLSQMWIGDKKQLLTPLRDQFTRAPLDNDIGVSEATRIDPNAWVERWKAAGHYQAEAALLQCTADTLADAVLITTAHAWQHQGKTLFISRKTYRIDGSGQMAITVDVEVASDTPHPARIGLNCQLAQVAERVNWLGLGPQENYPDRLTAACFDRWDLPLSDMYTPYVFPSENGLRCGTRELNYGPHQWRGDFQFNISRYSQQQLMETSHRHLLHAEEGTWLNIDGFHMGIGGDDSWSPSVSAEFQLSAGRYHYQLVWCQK

[6] = biological target: T3, Kappa-type opioid receptor; format: functional; remark: listed apart in the source
[7] = biological target: Microphthalmia-associated transcription factor (Homo sapiens, UniProt O75030); experiment: reducers of TRPM1 reporter luminescence, concentration series – cell-based, SK-MEL-5, cherry-picked, set 3, MITF inhibitor project, dose response (AID 493073); format: functional;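 further: SK-MEL-5 melanoma cells with luciferase driven by the MITF target TRPM1 promoter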
Sequence of Microphthalmia-associated transcription factor (O75030 whole entry): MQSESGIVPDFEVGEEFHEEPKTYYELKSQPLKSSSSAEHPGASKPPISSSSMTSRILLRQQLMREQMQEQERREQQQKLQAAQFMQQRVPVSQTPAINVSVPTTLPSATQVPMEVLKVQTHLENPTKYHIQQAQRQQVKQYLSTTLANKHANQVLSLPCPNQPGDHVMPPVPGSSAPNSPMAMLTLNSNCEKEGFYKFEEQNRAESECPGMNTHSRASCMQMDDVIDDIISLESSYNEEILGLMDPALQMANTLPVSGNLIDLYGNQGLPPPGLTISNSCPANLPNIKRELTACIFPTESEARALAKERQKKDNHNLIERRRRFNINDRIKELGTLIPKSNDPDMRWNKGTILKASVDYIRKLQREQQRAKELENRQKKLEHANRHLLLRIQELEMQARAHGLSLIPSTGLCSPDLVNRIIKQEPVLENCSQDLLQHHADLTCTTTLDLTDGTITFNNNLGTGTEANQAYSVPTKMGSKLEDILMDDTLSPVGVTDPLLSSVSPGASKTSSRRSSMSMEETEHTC

[8] = tested on: Vero; experiment: cells; format: functional; conditions: Chlorocebus sabaeus
[9] = biological target: T3, Kappa-type opioid receptor; experiment: SAR analysis of small molecule agonists of the kappa opioid receptor via a luminescent beta-arrestin assay. [Related pubchem assays (depositor defined):AID1777, AID1786, AID1966, AID2133, AID2136, AID2348, AID2352, AID2357, AID2359, AID2370, AID2420, AID2478, AID2491, AID2492, AID2493, AID2497, AID2498, AID2500, AID449737, AID488822, AID488842]; format: functional
[10] = biological target: T2, Mu-type opioid receptor; experiment: mu opioid receptor activators, image-based, SAR follow-up (AID 2352); format: functional
[11] = biological target: T1, Delta-type opioid receptor; experiment: DOR agonists, SAR follow-up, image-based (AID 2370); format: functional
[12] = biological target: T3, Kappa-type opioid receptor; experiment: kappa opioid receptor blockers, image-based, SAR follow-up (AID 2348); format: functional
[13] = biological target: T2, Mu-type opioid receptor; experiment: mu opioid receptor blockers – image-based, SAR follow-up (AID 2420); format: functional;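 further: compounds added before stimulation of receptor with agonist DAMGO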
[14] = biological target: T3, Kappa-type opioid receptor; experiment: kappa opioid receptor activation potency – imaging, image-based, SAR follow-up (AID 2359); format: functional
[15] = biological target: T1, Delta-type opioid receptor; experiment: delta opioid receptor blockers – image-based, SAR follow-up (AID 2357); format: functional
[16] = biological target: G-protein coupled receptor 35 (Homo sapiens, UniProt Q9HC97); experiment: SAR Analysis for the identification of Selective Antagonists of ERK1/2 Activity in GPR35-Overexpressing U2OS Cells. [Related pubchem assays: 2079, 2058 ]; format: functional, cell-based
Sequence of G-protein coupled receptor 35 (Q9HC97 whole entry): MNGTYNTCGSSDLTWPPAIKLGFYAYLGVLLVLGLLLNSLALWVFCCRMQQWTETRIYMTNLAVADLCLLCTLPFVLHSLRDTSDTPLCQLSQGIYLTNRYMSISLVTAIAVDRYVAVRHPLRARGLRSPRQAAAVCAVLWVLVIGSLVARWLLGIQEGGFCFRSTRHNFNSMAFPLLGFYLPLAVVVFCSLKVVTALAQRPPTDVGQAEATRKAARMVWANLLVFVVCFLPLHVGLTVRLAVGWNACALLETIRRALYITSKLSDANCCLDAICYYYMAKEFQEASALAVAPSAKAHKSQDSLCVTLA

[17] = biological target: G-protein coupled receptor 55 (Homo sapiens, UniProt Q9Y2T6); experiment: blockers of GPR55 signalling, imaged – imaging, image-based, counter-screen for GPR35 antagonist project, SAR follow-up (AID 2397); format: functional
Sequence of G-protein coupled receptor 55 (Q9Y2T6 whole entry): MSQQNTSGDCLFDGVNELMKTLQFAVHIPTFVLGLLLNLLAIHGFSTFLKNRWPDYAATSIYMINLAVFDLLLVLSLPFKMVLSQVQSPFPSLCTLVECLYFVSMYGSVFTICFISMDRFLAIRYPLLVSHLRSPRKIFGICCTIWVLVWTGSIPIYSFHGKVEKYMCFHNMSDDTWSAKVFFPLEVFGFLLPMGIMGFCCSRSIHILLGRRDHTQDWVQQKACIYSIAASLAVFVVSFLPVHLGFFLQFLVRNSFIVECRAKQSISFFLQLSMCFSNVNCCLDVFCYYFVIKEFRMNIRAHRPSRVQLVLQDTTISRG

[18] = biological target: Melanocortin receptor 4 (Homo sapiens, UniProt P32245); format: functional, cell-based;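 further: Cell-based assay with luminescence read-out, confirmatory dose-response testing for agonist activity of biased ligands at MC4R; human U2OS cells with tagged receptor and beta-arrestin; potency of agonists that increase receptor coupling to beta-arrestin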
Sequence of Melanocortin receptor 4 (P32245 whole entry): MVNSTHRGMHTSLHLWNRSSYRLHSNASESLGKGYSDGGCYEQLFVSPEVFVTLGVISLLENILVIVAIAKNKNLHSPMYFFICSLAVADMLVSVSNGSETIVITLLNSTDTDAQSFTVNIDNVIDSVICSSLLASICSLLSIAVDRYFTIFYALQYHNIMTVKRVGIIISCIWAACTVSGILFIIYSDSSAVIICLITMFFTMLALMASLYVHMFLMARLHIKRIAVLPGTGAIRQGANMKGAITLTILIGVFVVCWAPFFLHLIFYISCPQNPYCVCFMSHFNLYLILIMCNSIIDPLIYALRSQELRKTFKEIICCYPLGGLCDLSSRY

[19] = biological target: Paired box protein Pax-8 (Homo sapiens, UniProt Q06710); experiment: PAX8 transcriptional activity inhibition in RMG-I – RMG-I cells, luciferase, cherry-pick, dose response (AID 687027); format: functional, cell-based;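 further: luciferase reporter driven by Pax8 target thyroperoxidase promoter measured by SteadyGlo luminescence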
Sequence of Paired box protein Pax-8 (Q06710 whole entry): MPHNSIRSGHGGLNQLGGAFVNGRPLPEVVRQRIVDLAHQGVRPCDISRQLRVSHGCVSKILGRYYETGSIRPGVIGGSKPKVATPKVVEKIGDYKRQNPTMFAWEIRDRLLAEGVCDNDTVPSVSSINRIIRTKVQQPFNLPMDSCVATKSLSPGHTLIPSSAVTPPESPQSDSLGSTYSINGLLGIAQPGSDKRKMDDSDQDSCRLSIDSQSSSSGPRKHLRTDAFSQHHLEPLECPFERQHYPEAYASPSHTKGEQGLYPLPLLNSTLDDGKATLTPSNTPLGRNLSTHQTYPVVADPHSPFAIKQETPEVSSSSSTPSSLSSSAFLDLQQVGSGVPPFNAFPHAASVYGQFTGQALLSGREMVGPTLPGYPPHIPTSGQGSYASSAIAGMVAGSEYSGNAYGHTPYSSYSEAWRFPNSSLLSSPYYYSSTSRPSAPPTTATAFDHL

[20] = general cell-killing toxicity readout – plate reader, dry powder samples, cytotoxicity control for PAX8 inhibitor project, dose response (AID 743021); format: functional, cell-based
[21] = biological target: T3, Kappa-type opioid receptor; experiment: SAR analysis of small molecule agonists of the kappa opioid receptor via a luminescent beta-arrestin assay - Set 3. [Related pubchem assays (depositor defined):AID1777, AID1785, AID1786, AID1966, AID2133, AID2136, AID2284, AID2500]; format: functional
[22] = biological target: T4, Tyrosine-protein phosphatase non-receptor type 7 (Homo sapiens, UniProt P35236); format: functional
T4 sequence (P35236 whole entry): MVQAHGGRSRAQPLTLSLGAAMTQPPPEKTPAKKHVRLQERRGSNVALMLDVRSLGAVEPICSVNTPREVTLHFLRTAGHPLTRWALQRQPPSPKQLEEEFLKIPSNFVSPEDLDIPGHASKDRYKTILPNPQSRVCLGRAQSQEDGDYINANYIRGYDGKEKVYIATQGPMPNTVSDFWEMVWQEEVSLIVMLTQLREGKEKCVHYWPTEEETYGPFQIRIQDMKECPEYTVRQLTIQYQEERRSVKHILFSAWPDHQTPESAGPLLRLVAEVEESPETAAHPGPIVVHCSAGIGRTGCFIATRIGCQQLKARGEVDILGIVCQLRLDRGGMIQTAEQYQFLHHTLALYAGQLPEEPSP

[23] = biological target: T5, Tyrosine-protein phosphatase non-receptor type 22 (Homo sapiens, UniProt Q9Y2R2); format: functional
T5 sequence (Q9Y2R2 whole entry): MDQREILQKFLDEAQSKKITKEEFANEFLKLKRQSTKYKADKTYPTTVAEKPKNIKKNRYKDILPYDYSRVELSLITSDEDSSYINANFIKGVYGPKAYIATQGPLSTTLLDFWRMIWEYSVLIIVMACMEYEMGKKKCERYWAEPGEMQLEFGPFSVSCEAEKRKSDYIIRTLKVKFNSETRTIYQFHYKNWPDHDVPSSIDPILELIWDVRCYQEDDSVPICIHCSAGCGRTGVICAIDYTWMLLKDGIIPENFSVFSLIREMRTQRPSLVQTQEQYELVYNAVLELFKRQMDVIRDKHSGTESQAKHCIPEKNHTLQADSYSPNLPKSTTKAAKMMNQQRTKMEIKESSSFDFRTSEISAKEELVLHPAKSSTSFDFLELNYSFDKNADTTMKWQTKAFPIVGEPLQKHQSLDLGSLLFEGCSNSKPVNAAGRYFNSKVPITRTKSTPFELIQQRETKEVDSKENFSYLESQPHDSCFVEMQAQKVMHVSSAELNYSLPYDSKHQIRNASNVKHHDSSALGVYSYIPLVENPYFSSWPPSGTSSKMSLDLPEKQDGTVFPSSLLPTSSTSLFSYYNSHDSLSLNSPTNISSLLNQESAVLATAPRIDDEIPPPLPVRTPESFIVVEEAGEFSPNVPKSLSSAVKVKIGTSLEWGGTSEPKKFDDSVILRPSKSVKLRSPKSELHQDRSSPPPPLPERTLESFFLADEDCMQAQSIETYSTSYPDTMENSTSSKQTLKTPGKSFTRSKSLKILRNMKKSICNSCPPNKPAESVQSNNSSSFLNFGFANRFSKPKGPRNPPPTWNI

[24] = biological target: T5, Tyrosine-protein phosphatase non-receptor type 22; format: functional; remark: listed apart in the source
[25] = biological target: T6, Carboxy-terminal domain RNA polymerase II polypeptide A small phosphatase 1 (Homo sapiens, UniProt Q9GZU7); experiment: CTDSP1 inhibitors, concentration-response, biochemical, absorbance readout, ultra-high-throughput screen actives (AID 540297); format: functional
T6 sequence (Q9GZU7 whole entry): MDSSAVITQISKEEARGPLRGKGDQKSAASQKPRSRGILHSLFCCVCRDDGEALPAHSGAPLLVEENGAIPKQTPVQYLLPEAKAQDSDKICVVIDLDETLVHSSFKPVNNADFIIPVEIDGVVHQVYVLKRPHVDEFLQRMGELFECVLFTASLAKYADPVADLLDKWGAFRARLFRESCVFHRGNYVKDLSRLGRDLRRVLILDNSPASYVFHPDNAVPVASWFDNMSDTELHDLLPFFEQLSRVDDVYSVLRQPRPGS

[26] = biological target: T7, Tyrosine-protein phosphatase non-receptor type 11 (Homo sapiens, UniProt Q06124); experiment: PTPN11 enzyme inhibitors – biochemical, selectivity assay for STEP inhibitor project, dose response (AID 602367); format: functional; conditions: read-out: IC50_Mean
T7 sequence (Q06124 whole entry): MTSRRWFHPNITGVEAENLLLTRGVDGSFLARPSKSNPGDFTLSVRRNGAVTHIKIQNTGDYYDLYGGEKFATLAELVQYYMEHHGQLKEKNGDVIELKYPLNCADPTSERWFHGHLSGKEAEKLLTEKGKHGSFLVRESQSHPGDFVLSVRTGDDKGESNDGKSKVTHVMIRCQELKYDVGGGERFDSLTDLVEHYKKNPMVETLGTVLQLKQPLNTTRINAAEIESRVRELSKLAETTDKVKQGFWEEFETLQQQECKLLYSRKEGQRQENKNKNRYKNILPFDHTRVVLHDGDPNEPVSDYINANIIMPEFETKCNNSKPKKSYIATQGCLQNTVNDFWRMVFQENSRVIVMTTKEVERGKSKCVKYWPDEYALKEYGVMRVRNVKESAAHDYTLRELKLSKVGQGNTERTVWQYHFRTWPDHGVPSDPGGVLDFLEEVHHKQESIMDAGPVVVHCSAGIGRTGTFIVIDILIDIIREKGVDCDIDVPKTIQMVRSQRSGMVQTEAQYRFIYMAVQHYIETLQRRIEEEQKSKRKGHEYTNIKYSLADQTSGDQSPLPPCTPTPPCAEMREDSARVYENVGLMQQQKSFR

[27] = biological target: T8, Tyrosine-protein phosphatase non-receptor type 5 (Homo sapiens, UniProt P54829); experiment: PTPN5 enzyme inhibition – biochemical, fluorescence intensity, uHTS hits, confirmation (AID 602372); format: functional; conditions: read-out: IC50_Mean
T8 sequence (P54829 whole entry): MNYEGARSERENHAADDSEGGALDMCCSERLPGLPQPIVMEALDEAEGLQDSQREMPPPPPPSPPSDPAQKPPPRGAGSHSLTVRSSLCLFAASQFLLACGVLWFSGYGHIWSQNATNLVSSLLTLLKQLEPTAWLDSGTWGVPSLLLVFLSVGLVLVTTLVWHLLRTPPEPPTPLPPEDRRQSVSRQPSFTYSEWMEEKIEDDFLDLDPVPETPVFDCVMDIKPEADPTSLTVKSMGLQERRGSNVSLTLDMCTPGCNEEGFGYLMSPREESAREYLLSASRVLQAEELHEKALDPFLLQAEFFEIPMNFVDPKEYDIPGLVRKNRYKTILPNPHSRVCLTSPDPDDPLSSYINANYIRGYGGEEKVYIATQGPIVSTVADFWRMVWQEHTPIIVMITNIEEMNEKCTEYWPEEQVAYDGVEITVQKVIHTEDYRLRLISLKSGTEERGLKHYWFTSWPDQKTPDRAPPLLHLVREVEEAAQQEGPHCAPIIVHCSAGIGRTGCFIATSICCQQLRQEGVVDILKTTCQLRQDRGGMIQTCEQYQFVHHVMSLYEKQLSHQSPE

[28] = biological target: Dual specificity protein phosphatase 3 (Homo sapiens, UniProt P51452); experiment: VHR phosphatase inhibition, dose response, selectivity assay for STEP inhibitor project, biochemical (AID 602374); format: functional; conditions: read-out: IC50_Mean
Sequence of Dual specificity protein phosphatase 3 (P51452 whole entry): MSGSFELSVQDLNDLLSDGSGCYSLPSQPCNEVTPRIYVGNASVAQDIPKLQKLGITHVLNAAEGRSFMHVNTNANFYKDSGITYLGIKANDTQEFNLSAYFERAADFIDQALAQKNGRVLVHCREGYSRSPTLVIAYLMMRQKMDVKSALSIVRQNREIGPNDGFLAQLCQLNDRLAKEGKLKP

[29] = biological target: T9, Low molecular weight phosphotyrosine protein phosphatase (Homo sapiens, UniProt P24666); format: functional; conditions: read-out: IC50_Mean
T9 sequence (P24666 whole entry): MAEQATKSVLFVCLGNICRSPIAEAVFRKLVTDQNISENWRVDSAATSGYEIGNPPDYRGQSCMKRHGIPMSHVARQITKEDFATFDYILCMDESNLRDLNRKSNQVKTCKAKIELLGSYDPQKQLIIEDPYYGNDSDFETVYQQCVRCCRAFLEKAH

[30] = biological target: T5, Tyrosine-protein phosphatase non-receptor type 22; experiment: lymphoid phosphatase LYP inhibitors – biochemical, selectivity assay for STEP inhibitor project, dose response (AID 624241); format: functional
[31] = biological target: T9, Low molecular weight phosphotyrosine protein phosphatase; format: functional; conditions: read-out: IC50_Mean; remark: listed apart in the source
[32] = biological target: T5, Tyrosine-protein phosphatase non-receptor type 22; experiment: PTPN22 enzyme inhibitors – biochemical, fluorescence, LYP catalytic domain, selectivity assay for LMPTP inhibitor project, dose response (AID 652006); format: functional; conditions: read-out: IC50_Mean

T1 sequence (P41143 whole entry): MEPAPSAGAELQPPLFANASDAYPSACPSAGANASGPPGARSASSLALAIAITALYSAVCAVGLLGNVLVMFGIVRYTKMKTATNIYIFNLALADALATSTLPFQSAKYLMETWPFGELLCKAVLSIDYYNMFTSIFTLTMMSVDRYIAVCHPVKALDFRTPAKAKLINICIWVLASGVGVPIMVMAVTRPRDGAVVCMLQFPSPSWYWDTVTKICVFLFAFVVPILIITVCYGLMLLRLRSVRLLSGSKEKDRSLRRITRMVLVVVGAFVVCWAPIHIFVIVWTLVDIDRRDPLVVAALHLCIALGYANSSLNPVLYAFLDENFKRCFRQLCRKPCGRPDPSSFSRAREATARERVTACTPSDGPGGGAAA

Compound: COc1cc(OC)cc(-c2nnc(NC(=O)c3ccc4c(c3)OCCO4)o2)c1
- IC50 [1]: > 32 µM (inactive)
- EC50 [2]: > 32 µM (inactive)
- EC50 [3]: > 32 µM (inactive)
- IC50 [4]: 13.3 µM (active)
- EC50 [5]: > 31.5 µM (inactive)
- IC50 [6]: > 32 µM

Compound: CC(C)N=C(NS(=O)(=O)c1ccccc1)C(Cl)(Cl)Cl
- AC50 [7]: 6.76 µM (active)
- CC50 [8]: 11.5 µM (active)

Compound: COc1ccc(C(=O)CSc2nnc(-c3ccccn3)n2Cc2ccco2)cc1
- EC50 [9]: > 10 µM (inactive)
- EC50 [10]: > 32 µM (inactive)
- EC50 [11]: > 32 µM (inactive)
- IC50 [12]: > 32 µM (inactive)
- IC50 [13]: > 32 µM (inactive)
- EC50 [14]: > 32 µM (inactive)
- IC50 [15]: > 32 µM (inactive)

Compound: Clc1ccc(Cn2ncc3c(N4CCN(c5ccccc5)CC4)ncnc32)cc1
- IC50 [16]: > 32 µM (not active)
- IC50 [17]: 29.3 µM (inactive)
- EC50 [18]: > 89.1 µM (inactive)
- AC50 [19]: 8.65 µM (active)
- AC50 [20]: 33.9 µM (active)

Compound: COc1ccc(Cn2c(SCc3ccc(Cl)c(Cl)c3)nnc2-c2ccccn2)cc1
- EC50 [21]: 17.4 µM (inactive)

Compound: O=C(COc1ccc(/C=N/NC(=O)c2ccc(O)cc2)cc1)Nc1cccc([N+](=O)[O-])c1
- IC50 [22]: 49.1 µM (active)
- IC50 [23]: 64.7 µM (active)
- IC50 [24]: 37.6 µM (active)
- IC50 [25]: 2.98 µM (active)
- IC50 [26]: 2.41 µM (active)
- IC50 [27]: 8.06 µM (active)
- IC50 [28]: 3.06 µM (active)
- IC50 [29]: 11.2 µM (active)
- IC50 [30]: 48.9 µM (inactive)
- IC50 [31]: 15.8 µM (active)
- IC50 [32]: 11.6 µM (active)
